# ChEMBL document CHEMBL1201862, “PubChem BioAssay data set” (2004)
# The source made the active and inactive calls.
# Assays:
# BJ [1] = assay: cells; type: functional, cell-based; details: Homo sapiens
# BJ [2] = assay: BJ-TERT fibroblast viability loss – cell-based, RAS-independent, luminescence, dose response (AID 1933); type: functional; details: Homo sapiens
# [3] = DRD fibroblast viability loss – cell-based, non-viral oncogenic, luminescence, dose response (AID 1934); type: functional; details: Homo sapiens
# BJ [4] = assay: BJ-TERT-LT-ST fibroblast viability loss – cell-based, RAS-independent, luminescence, dose response (AID 1935); type: functional; details: Homo sapiens;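 further: BJ fibroblasts immortalized with TERT plus LT and ST oncogenes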
# [5] = Trypanosoma cruzi growth suppression in host cells – NIH3T3 host cells, beta-gal luminescence, confirmation (AID 2044); type: functional, cell-based;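 further: intracellular parasites grown in NIH/3T3 mouse fibroblasts as host cells; luminescent beta-galactosidase reporter signal from transgenic T. cruzi replicating inside host cells; inhibitors lower the luminescence signal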
# [6] = NIH3T3 cell viability loss – ATP luminescence, mouse fibroblasts, counter-screen, dose response (AID 2010); type: functional, cell-based;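 further: cells exposed to compound for about 90 hours before reading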
# [7] = microbe, parasite or virus in culture; type: functional; details: Mycobacterium tuberculosis
# [8] = viability of uninfected HEp-2 cells – cell-based, HTS, cytotoxicity control for RSV inhibitor project, dose response (AID 2410); type: functional; details: human respiratory syncytial virus
# [9] = target: T1, Rac GTPase-activating protein 1 (Homo sapiens, UniProt Q9H0H5); assay: blockers of MgcRacGAP-driven Rac1 GTP hydrolysis – biochemical, ADP Hunter fluorescence, primary and confirmatory, confirmation (AID 624330); type: functional
# T1 sequence (Q9H0H5 whole entry): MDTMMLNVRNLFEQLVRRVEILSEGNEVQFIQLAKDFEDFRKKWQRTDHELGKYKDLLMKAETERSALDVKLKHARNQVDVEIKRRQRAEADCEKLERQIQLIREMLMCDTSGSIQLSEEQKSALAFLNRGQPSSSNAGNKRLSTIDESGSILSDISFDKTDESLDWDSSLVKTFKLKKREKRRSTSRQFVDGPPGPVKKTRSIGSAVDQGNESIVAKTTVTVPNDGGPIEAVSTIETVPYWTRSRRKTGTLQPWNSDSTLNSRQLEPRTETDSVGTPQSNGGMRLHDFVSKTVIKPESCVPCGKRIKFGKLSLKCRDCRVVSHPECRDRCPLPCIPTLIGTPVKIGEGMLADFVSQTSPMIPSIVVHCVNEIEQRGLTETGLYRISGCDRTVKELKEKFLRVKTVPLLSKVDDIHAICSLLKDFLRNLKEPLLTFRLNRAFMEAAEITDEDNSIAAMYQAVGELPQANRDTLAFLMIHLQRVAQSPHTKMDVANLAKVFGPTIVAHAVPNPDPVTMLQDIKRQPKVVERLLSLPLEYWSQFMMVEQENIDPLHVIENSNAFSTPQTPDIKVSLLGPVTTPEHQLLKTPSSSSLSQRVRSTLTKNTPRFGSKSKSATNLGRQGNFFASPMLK
# [10] = target: T2, Heat shock factor protein 1 (Mus musculus, UniProt P38532); assay: enhancement of HSF1-driven luciferase signal – cell-based, NIH3T3, luminescence, dose retest, confirmation (AID 435004); type: functional;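 further: stress induced by proteasome inhibitor MG132 added 30 min after compound; luciferase reporter driven by HSF1 response element in NIH3T3 cells; actives raise luminescence as potentiators of the MG132 stress response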
# T2 sequence (P38532 whole entry): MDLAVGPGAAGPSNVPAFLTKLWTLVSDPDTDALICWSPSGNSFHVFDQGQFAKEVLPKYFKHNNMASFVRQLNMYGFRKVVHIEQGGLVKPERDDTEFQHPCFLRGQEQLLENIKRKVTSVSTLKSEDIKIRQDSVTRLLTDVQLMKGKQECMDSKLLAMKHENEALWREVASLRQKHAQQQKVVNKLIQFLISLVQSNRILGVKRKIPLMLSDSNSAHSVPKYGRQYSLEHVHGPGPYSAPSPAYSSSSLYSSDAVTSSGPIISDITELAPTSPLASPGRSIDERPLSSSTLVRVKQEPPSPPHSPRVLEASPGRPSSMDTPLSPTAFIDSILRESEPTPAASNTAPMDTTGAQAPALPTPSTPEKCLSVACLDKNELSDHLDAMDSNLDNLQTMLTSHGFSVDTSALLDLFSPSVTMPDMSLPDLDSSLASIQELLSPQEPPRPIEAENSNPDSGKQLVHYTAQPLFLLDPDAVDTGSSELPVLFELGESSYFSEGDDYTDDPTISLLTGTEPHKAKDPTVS
# INS1 = assay: INS-1E survival protection against cytokine death – cell-based, luminescence, retest, dose response (AID 449756); type: functional; details: Rattus norvegicus;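 further: cell death triggered by IL-1 beta plus TNF-alpha plus IFN-gamma mixture; protective hits raise ATP signal compared with cytokine alone wells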
# cells = type: functional
# Streptokinase A = target: T3, Streptokinase A (Streptococcus pyogenes serotype M1, UniProt P10520); assay: viability-normalized secreted streptokinase activity reduction – plasminogen activation absorbance, OD405, dose response (AID 1914); type: functional, Streptococcus pyogenes M1 GAS;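 further: secreted streptokinase activity via plasminogen activation per viability signal from cell pellet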
# T3 sequence (P10520 whole entry): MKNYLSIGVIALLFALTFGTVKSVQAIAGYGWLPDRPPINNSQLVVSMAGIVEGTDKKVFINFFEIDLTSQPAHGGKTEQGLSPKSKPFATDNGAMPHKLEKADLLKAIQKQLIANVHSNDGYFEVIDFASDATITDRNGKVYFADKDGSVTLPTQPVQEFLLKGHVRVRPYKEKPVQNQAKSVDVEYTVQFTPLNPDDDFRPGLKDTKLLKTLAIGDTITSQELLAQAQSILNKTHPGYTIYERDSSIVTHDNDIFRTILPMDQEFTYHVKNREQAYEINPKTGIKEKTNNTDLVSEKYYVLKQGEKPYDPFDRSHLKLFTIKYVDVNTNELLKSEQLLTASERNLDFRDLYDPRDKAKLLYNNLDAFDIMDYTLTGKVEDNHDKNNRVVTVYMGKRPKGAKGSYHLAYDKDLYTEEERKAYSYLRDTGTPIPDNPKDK
# [11] = test system: Streptococcus sp. 'group A'; assay: Streptococcus pyogenes SK(-)GAS viability under kanamycin – luminescence, BacTiterGlo, confirmation, counter-screen for streptokinase expression inhibitor project, dose response (AID 1900); type: functional, organism-based
# Streptococcus = assay: GAS UMAA2166 growth inhibition – luminescence, BacTiterGlo, counter-screen for streptokinase expression inhibitor project, dose response (AID 1915); type: functional, organism-based;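 further: potency for reduction of bacterial viability or growth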
# [12] = target: T4, Corticotropin-releasing factor receptor 2/Corticotropin-releasing factor-binding protein (Homo sapiens, UniProt P24387+Q13324); assay: activators of CRF receptor 2 with binding protein – uHTS hits, confirmation (AID 602473); type: functional; details: read-out: EC50_Mean
# T4 sequence (Q13324 whole entry): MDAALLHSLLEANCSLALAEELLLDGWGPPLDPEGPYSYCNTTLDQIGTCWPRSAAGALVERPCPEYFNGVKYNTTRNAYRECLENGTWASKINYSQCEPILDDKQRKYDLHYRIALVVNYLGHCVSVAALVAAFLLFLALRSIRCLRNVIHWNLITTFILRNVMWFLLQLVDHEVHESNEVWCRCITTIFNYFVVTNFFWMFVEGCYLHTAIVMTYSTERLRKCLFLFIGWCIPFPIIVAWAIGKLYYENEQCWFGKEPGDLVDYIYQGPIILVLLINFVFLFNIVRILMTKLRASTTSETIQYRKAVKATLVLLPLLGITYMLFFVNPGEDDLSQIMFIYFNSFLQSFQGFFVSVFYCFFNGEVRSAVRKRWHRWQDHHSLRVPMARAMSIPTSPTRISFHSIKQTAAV
# T4 sequence (P24387 whole entry): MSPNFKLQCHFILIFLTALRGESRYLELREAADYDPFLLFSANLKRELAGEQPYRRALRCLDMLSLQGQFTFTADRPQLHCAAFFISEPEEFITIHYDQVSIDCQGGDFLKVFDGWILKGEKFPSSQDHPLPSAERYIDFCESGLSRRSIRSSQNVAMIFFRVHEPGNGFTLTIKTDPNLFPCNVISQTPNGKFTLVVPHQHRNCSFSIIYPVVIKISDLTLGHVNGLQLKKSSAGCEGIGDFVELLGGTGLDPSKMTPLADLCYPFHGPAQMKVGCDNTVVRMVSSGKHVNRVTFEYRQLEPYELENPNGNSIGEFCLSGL
# Cytochrome P450 3A4 = Cytochrome P450 3A4 (Homo sapiens, UniProt P08684);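 further: CYP3A4 tested as one member of a cytochrome P450 panel screen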
# Sequence of Cytochrome P450 3A4 (P08684 whole entry): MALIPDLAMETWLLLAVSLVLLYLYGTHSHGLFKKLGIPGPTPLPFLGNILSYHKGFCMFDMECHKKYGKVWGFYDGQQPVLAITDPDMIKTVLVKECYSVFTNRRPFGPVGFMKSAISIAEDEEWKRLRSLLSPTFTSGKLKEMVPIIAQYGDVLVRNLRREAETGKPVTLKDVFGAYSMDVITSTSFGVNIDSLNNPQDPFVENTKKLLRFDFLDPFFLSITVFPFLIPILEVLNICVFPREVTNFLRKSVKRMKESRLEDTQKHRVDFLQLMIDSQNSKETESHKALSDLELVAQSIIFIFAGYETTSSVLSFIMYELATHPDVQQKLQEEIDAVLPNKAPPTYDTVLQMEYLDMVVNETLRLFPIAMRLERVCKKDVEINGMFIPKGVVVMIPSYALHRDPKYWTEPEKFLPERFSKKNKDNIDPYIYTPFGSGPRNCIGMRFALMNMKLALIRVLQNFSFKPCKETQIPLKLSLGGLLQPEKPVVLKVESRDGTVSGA
# [13] = Luminescence Cell-Based Dose Retest to Confirm Inhibitors of Cancer Stem Cells. [Related pubchem assays (depositor defined):AID2717, AID2721]; type: functional; details: Homo sapiens
# [14] = P. falciparum Dd2 growth inhibitors, dose response, SYBR Green, cherry-picked samples (AID 1159567); type: functional, cell-based
compound,measurement,setting,value
COc1ccc2nc(-c3cccc(F)c3)cc(O)c2c1,EC50,BJ [1],1.41 µM (inconclusive)
same,EC50,BJ [2],1.24 µM (active)
same,EC50,[3],2.39 µM (inconclusive)
same,EC50,BJ [4],0.885 µM (active)
COc1cc(OC)cc(-c2cc3nc(C)c(CCC(=O)NC(C)CCc4ccco4)c(C)n3n2)c1 (stereo not given),EC50,[5],0.45 µM (active)
same,EC50,[6],> 30 µM (not active)
same,CC50,[7],31.8 µM (active)
CCCCCCC(=O)Nc1nc(C)c(-c2csc(Nc3ccccc3OC)n2)s1,CC50,[8],15 µM (active)
COc1cccc(C(=O)N2CCN(C3CCCCC3)CC2)c1,IC50,[9],142 µM (active)
Cc1ccc(NC(=O)CSc2nc3ccccc3c(=O)n2CCCN2CCCCC2)cc1Cl,EC50,[5],2.29 µM (active)
same,EC50,[6],> 60 µM (inconclusive)
same,CC50,[7],14.4 µM (active)
COc1cc2nc(NC(=O)c3ccc(Cl)cc3)sc(=O)c2cc1OC,EC50,[10],> 260 µM (inactive)
O=C(NCCN1CCN(c2cccc(Cl)c2)CC1)c1ccc(CSc2nc3cc[nH]cc-3n2)cc1,CC50,[7],> 40 µM (active)
O=C(Nc1cccc(-c2nnc(-c3ccco3)o2)c1)C(c1ccccc1)c1ccccc1,CC50,[8],15.2 µM (active)
Cc1ccc2oc(C(Cl)(Cl)Cl)cc(=O)c2c1,EC50,[10],27.9 µM (active)
CC(=O)c1ccc(NC(S)=NC(C)c2ccc(Cl)cc2Cl)cc1 (stereo not given),AC50,INS1,15.6 µM (active)
O=[N+]([O-])c1ncccc1Oc1nc(-c2cccnc2)nc2ccccc12,IC50,cells,1.15 µM (active)
same,CC50,[7],> 40 µM (active)
CCOC(=O)c1nnc(-c2ccc(C)cc2)nc1Oc1ccccc1Cl,CC50,[8],21.3 µM (active)
Cc1nc(C)c(-c2csc(NCCc3ccccc3)n2)s1,AC50,INS1,18 µM (active)
Cc1ccc(/C=C/C(=O)c2ccc([N+](=O)[O-])o2)cc1,EC50,Streptokinase A,8.82 µM (active)
same,AC50,INS1,5.65 µM (active)
same,EC50,[11],4.07 µM (active)
same,EC50,Streptococcus,14.2 µM (active)
CC(=O)Nc1cccc(C(=O)/C=C/c2ccc(/C=C/C(=O)c3cccc(NC(C)=O)c3)cc2)c1,EC50,BJ [1],> 150 µM (not active)
same,EC50,BJ [2],5.89 µM (inconclusive)
same,EC50,[3],5.45 µM (inconclusive)
same,EC50,BJ [4],3.93 µM (inconclusive)
CCOC(=O)c1nnc2cc(-c3ccccc3)nn2c1C,CC50,[8],> 50 µM (active)
Cc1nn(-c2ccccc2)c2c1C1(C(=O)Nc3ccccc31)N1C(=N2)Sc2ccccc21 (stereo not given),CC50,[8],18.4 µM (active)
O=C(Nc1nnc(-c2ccccc2)o1)c1cc(Cl)sc1Cl,EC50,[12],> 53 µM (inactive)
COc1cc(CNc2ccc(N3CCN(C(C)=O)CC3)cc2)ccc1OCc1ccccc1,IC50,[9],12.8 µM (active)
COc1ccc(-c2cc(C(F)(F)F)nc(SCc3cccc(C(=O)O)c3)n2)cc1,CC50,[8],22.2 µM (active)
same,AC50,Cytochrome P450 3A4,14.1 µM (inconclusive)
COc1ccc(-c2ccc3c(c2)S(=O)(=O)c2cccc(C(=O)NCCOc4ccccc4Cl)c2C3=O)cc1OC,AC50,INS1,3.41 µM (active)
O=C(c1cn(CC(=O)N2CCCCC2)c2ccccc12)C1CC1,EC50,[10],> 260 µM (inactive)
Cc1ccc(C)c(S(=O)(=O)N2CCN(C(=O)c3ccccc3Cc3ccccc3)CC2)c1,CC50,[8],22.6 µM (active)
CN(C)/C=C1/C=C(c2ccccc2)OC1=O,IC50,[9],52.1 µM (active)
COc1ccc2c(c1)CCc1c(C(=O)N3CC4(C)CC3CC(C)(C)C4)noc1-2 (stereo not given),AC50,[13],< 0.16 µM (active)
same,EC50,[10],> 260 µM (inactive)
Cc1ccc(C)c(OCC(O)CN2CCC(C)CC2)c1C (stereo not given),IC50,[9],225 µM (active)
CCCCn1c(N)c(N(CC(C)C)C(=O)Cc2ccc(S(=O)(=O)N3CCOCC3)s2)c(=O)[nH]c1=O,EC50,[12],6.11 µM (active)
C[C@H]1CN([C@@H](C)CO)C(=O)CCCn2nncc2CO[C@@H]1CN(C)C(=O)Nc1ccc(N2CCCCC2)cc1,AC50,[14],> 39 µM (inactive)
CCCNC(=O)c1cc2c(c(-c3cccc(-c4cc5ccccc5o4)c3)n1)[C@@H](CCO)N(C(=O)NC(C)C)C2,AC50,[14],4.15 µM (active)
COc1ccc(CNC(=O)c2cc3c(c(-c4cccc(-c5cccc(C#N)c5)c4)n2)[C@H](CCO)N([S@@+]([O-])C(C)(C)C)C3)cc1,AC50,[14],3.46 µM (active)
CCOc1cc(/C=N/NC(=O)CN2CCCCC2)ccc1O,IC50,[9],50.4 µM (active)
CC(=N)/C(C#N)=C(/O)CSc1nnc(-c2ccccc2Br)o1,EC50,[10],> 260 µM (inactive)
Nc1ccc2nc(N)sc2c1,IC50,[9],9.57 µM (active)
COc1ccc(C#Cc2cccc(-c3nc(C(=O)N[C@@H]4CCN(Cc5ccccc5)C4)cc4c3[C@@H](CCO)N([S+]([O-])C(C)(C)C)C4)c2)cc1OC (stereo not given in full),AC50,[14],3.58 µM (active)
COc1ccc2c3c(n(C)c2c1)[C@H](CO)N(C(=O)Nc1ccc(F)cc1)CC31CN(C(=O)NC2CCCC2)C1,AC50,[14],5.8 µM (active)
CCS(=O)(=O)N1CCCCN2[C@H](CO)[C@H](c3ccc(C#Cc4ccccc4OC)cc3)[C@@H]2C1,AC50,[14],8.09 µM (active)
COc1ccc(C#Cc2ccc3c(c2)[C@H]2[C@H](CCN2C(=O)C2CCC2)[C@@H](CO)N3)cc1,AC50,[14],3.22 µM (active)
CC(C)[C@H](CO)N(Cc1cccc(F)c1)c1nc(Nc2cccc(Cl)c2)c2ncn(C(C)C)c2n1,CC50,[7],> 40 µM (active)
O=c1cc(-c2ccccc2)oc2ccccc12 [FLAVONE],CC50,[8],34.2 µM (active)
